Assay results as given in ChEMBL document CHEMBL3867446, “Sulfoureido Lipopeptides from the Marine Sponge Discodermia kiiensis” (J Nat Prod, 2016).

Assay: Cytotoxicity against mouse P388 cells after 3 days by MTT assay
Assay type: functional, cell-based
Conditions: P388, 72 h

Compound | IC50
CC/C=C1/NC(=O)/C=C/[C@H](C(C)C)OC(=O)C(C)(C)[C@H](C[C@H](/C=C/C=C/C/C=C\CCC(C)C)OC)OC(=O)CNC(=O)[C@H](CNC(N)=O)NC(=O)CNC(=O)[C@@H](CCCNC(=O)NS(=O)(=O)O)NC1=O | 15 µM
CC/C=C1/NC(=O)/C=C/[C@H]([C@@H](C)CC)OC(=O)C(C)(C)[C@H](C[C@H](/C=C/C=C/C/C=C\CCC(C)C)OC)OC(=O)CNC(=O)[C@H](CNC(N)=O)NC(=O)CNC(=O)[C@@H](CCCNC(=O)NS(=O)(=O)O)NC1=O | 29 µM
CC/C=C1/NC(=O)/C=C/[C@H](C(C)C)OC(=O)C(C)(C)[C@H](C[C@H](/C=C/C=C/C/C=C\CCC(C)C)OC)OC(=O)CNC(=O)[C@H](CNC(N)=O)NC(=O)CNC(=O)[C@@H](CCCNC(N)=O)NC1=O | 36 µM
CC/C=C1/NC(=O)/C=C/[C@H](C(C)C)OC(=O)C(C)(C)[C@H](C[C@H](/C=C/C=C/C/C=C\CCCC)OC)OC(=O)CNC(=O)[C@H](CNC(N)=O)NC(=O)CNC(=O)[C@@H](CCCNC(=O)NS(=O)(=O)O)NC1=O | 30 µM
